Test results from patent US8178506B2, “Oligomeric compounds and compositions for use in modulation of small non-coding RNAs” (Regulus Therapeutics Inc., priority 2003, dated 2012).
e = 2'-O-(2-methoxyethyl) (MOE); d = 2'-deoxy (DNA)

Test system: HeLa cells
Experiment: Cell cycle assay in HeLa cells
Type: cell-based, human
Settings: for % cells aneuploid / % cells in cell cycle phase G1 / % cells in cell cycle phase G2/M / % cells in cell cycle phase S / % cells in cell cycle phase subG1 / % cells in cell cycle phase: G1 / % cells in cell cycle phase: G2/M / % cells in cell cycle phase: S / % cells in cell cycle phase: aneuploid / % cells in cell cycle phase: subG1 / % cells in cell cycle phase aneuploid: HeLa cells; for % cells in cell cycle phase: G1 / % cells in cell cycle phase: G2/M / % cells in cell cycle phase: S / % cells in cell cycle phase: aneuploid / % cells in cell cycle phase: subG1: 48 hours after treatment, relative to untreated control (UTC=100); for phase of the cell cycle in which cells arrest or delay: HeLa
Method: In some embodiments, HeLa cells were plated on collagen-coated 24-well plates at 50,000-60,000 cells per well, and allowed to attach to wells overnight. In some embodiments, HeLa cells were synchronized by double thymidine block (cells were washed three times with PBS, then grown in 10% FBS containing 2 mM thymidine; then 19 hours later, cells were washed three times in PBS, 10% FBS for 9 hours; cells were then incubated in 10% FBS, 2 mM thymidine for 15 hours; then washed three times with PBS, 10% FBS and samples were taken every two hours over a 16 hour period). A portion of each time sample was fixed with ethanol and treated with propidium iodide and subjected to FACs analysis for determination of the percentage of cells in each phase of the cell cycle. […] HeLa cells treated with 10 μM cisplatin or 100 ng/ml nocodazole were used as controls for G1-phase and late G2/M-phases, respectively. From the remaining portion of each of these time samples, total RNA was isolated and used to assess the expression of cell cycle marker mRNAs using the real-time RT-PCR methods and/or used to screen microarrays to assess the expression of miRNAs over the course of the cell cycle. It was observed that several miRNAs are expressed in a cell-cycle-dependent manner. Shown in Table 30 are the mRNA levels of the E2F1 transcription factor and topoisomerase 2A (Top2A), which vary over the course of the cell cycle and can be used for comparison to the experimental groups for the confirmation of cell cycle phase. Data are an average of three trials.
In some embodiments, HeLa cells were also treated with oligomeric compounds targeting miRNAs. […] The medium was removed from the plates. Each well was washed in 250 μl of PBS. […] Control cells received LIPOFECTIN™ only. […] After 24 hours (Table 31) or 48 hours (Table 32), cells were prepared for flow cytometry analysis to generate a cell cycle profile. The cell cycle profile was analyzed with the ModFit program (Verity Software House, Inc., Topsham Me.).
The random-mer ISIS 29848 (SEQ ID NO: 737) was used as a negative control, and ISIS 183891 (SEQ ID NO: 847), targeting kinesin-like 1/Eg5, was included as a positive control. Data are expressed as percentage of cells in each phase relative to the untreated control (UTC); values above 100 are considered to indicate a delay or arrest in that phase of the cell cycle. […] In some cases, the same oligomeric compound was tested in repeated experiments.
In accordance with the present invention, certain oligomeric compounds targeting miRNAs were selected for dose response studies. Using the cell cycle assay described above, the cell cycle profiles of HeLa or A549 cells treated with varying concentrations of oligomeric compounds of the present invention were assessed.
HeLa cells were treated with 25-, 50-, 100- or 150 nM of the oligomeric compounds ISIS
Numbers 327902 (SEQ ID NO: 320) and 328383 (SEQ ID NO: 492), both targeted against mir-192, and ISIS 327905 (SEQ ID NO: 323), targeting mir-205, and ISIS 328403 (SEQ ID NO: 512), targeting mir-106. Cells treated with increasing concentrations of oligomeric compounds were compared to untreated cells, to assess the dose-dependency of the observed delay or arrest. The random-mer ISIS 29848 was used as a negative control. Cells were prepared for flow cytometry 48-hours after oligonucleotide treatment, as described, supra.

[1] = 150 nM oligomeric compound, 24 hours, relative to untreated control (UTC = 100)
[2] = 150 nM, 48 hours, relative to untreated control

Row | Substance | % cells aneuploid [1] | % cells in cell cycle phase G1 [1] | % cells in cell cycle phase G2/M [1] | % cells in cell cycle phase S [1] | % cells in cell cycle phase subG1 [1] | % cells in cell cycle phase: G1 (150 nM oligomeric compound) | % cells in cell cycle phase: G2/M (150 nM oligomeric compound) | % cells in cell cycle phase: S (150 nM oligomeric compound) | % cells in cell cycle phase: aneuploid (150 nM oligomeric compound) | % cells in cell cycle phase: subG1 (150 nM oligomeric compound) | % cells in cell cycle phase G1 [2] | % cells in cell cycle phase G2/M [2] | % cells in cell cycle phase S [2] | % cells in cell cycle phase aneuploid [2] | % cells in cell cycle phase subG1 [2] | phase of the cell cycle in which cells arrest or delay (150 nM, 24 hours) | phase of the cell cycle in which cells arrest or delay (150 nM, 48 hours)
1 | 338713 (antisense ACCTCTCAGGAAGACGGACT; all 2'-MOE, all phosphorothioate, methylation of C not given here) [compound 338713] | 187% | 152% | 101% | 72% | 93% | 95% | 109% | 104% | 194% | 426% | – | – | – | – | – | – | –
2 | 338741 (antisense GCTTCACAATTAGACCATCC; all 2'-MOE, all phosphorothioate, methylation of C not given here) [compound 338741] | 166% | 141% | 112% | 73% | 157% | 100% | 99% | 101% | 170% | 185% | – | – | – | – | – | – | –
3 | 338750 (antisense TCCGCGGGGGCGGGGAGGCT; all 2'-MOE, all phosphorothioate, methylation of C not given here) [compound 338750] | 166% | 148% | 97% | 76% | 107% | 99% | 103% | 101% | 190% | 201% | – | – | – | – | – | – | –
4 | 338756 (antisense TGCCCTGCTCAGAGCCCTAG; all 2'-MOE, all phosphorothioate, methylation of C not given here) [compound 338756] | 166% | 147% | 99% | 75% | 137% | 90% | 100% | 121% | 169% | 311% | – | – | – | – | – | – | –
5 | 338797 (antisense CTGGGGAGGGGGTTAGCGTC; all 2'-MOE, all phosphorothioate, methylation of C not given here) [compound 338797] | 193% | 101% | 148% | 79% | 197% | 66% | 168% | 124% | 175% | 813% | 104% | 115% | 89% | 125% | 144% | – | –
6 | 338809 (antisense CTGCTCCAGAGCCCGAGTCG; all 2'-MOE, all phosphorothioate, methylation of C not given here) [compound 338809] | 210% | 159% | 69% | 82% | 106% | 86% | 129% | 110% | 157% | 345% | – | – | – | – | – | – | –
7 | 338826 (antisense CGGATCCTGTTACCTCACCA; all 2'-MOE, all phosphorothioate, methylation of C not given here) [compound 338826] | 138% | 148% | 90% | 79% | 145% | 61% | 182% | 124% | 137% | 696% | – | – | – | – | – | – | –
8 | 338833 (antisense TCGTGCACCTGAGGAGTCTG; all 2'-MOE, all phosphorothioate, methylation of C not given here) [compound 338833] | 185% | 150% | 142% | 56% | 232% | 44% | 258% | 106% | 154% | 1091% | 87% | 136% | 100% | 136% | 255% | – | –
9 | 341785 (antisense GGAGTGAAGACACGGAGCCAGA; all 2'-MOE, all phosphorothioate, methylation of C not given here) [compound 341785] | 158% | 152% | 53% | 92% | 125% | 82% | 116% | 126% | 166% | 1148% | – | – | – | – | – | – | –
10 | 341787 (antisense CACAGGTTAAAGGGTCTCAGGGA; all 2'-MOE, all phosphorothioate, methylation of C not given here) [compound 341787] | 165% | 113% | 144% | 75% | 221% | 55% | 197% | 126% | 153% | 707% | 88% | 145% | 96% | 177% | 324% | – | –
11 | 341788 (antisense AGCCAAGCTCAGACGGATCCGA; all 2'-MOE, all phosphorothioate, methylation of C not given here) [compound 341788] | 114% | 154% | 140% | 54% | 303% | 76% | 163% | 105% | 116% | 748% | – | – | – | – | – | – | –
12 | 345373 (AGCCTATCCTGGATTACTTGAA; sugars from the 5' end e5 d10 e7, all phosphorothioate, methylation of C not given here) [compound 345373] | 68% | 66% | 176% | 94% | 196% | 75% | 145% | 132% | 119% | 116% | – | – | – | – | – | – | –
13 | AGCCTATCCTGGATTACTTGAA (chemistry not fully specified) [ISIS 345373] | – | – | – | – | – | – | – | – | – | – | – | – | – | – | – | G2/M-phase | S-phase
